According to patent US6268537A, “Method of synthesis of lithium substituted borohydride reagents and method of synthesis of reactive lithium hydride” (priority 1999, dated 2001):

Test: solubility of LiH in THF
Conditions: room temperature

## [H-].[Li+] [LiH, lithium hydride]
  solubility of LiH in THF: less than 0.00089 mol per liter
